One experiment deals with JNK. Kind of experiment: JNK kinase assay. The note with it: U937; 10 μM. The experiment is classed as cell-based, human. How it is done:
JNK kinase assay. To determine the effect of guggulsterone on the kinase activity of JNK, JNK complex from whole-cell extracts was precipitated with antibody against JNK1, followed by treatment with protein A/G-Sepharose beads (Pierce, Rockford, Ill.). After 2 h of incubation, the beads were washed with lysis buffer and then assayed in kinase assay mixture containing 50 mM HEPES (pH 7.4), 20 mM MgCl2, 2 mM dithiothreitol, 20 μCi of [γ-^32P]ATP, 10 μM unlabeled ATP, and 2 μg of substrate GST-c-Jun (1-79). The immunocomplex was incubated at 30° C. for 30 min and then boiled with SDS sample buffer for 5 min. Finally, the protein was resolved on 10% SDS-PAGE, the gel was dried, and the radioactive bands were visualized using the PhosphorImager. To determine the total amount of JNK1 in each sample, whole-cell extracts were subjected to Western blot analysis using anti-JNK1 antibody.

The next experiment relates to U937 cells. Kind of experiment: Annexin V and TUNEL assays. Format: cell-based, human. Here is the method:
Annexin V Assay. One of the early indicators of apoptosis is the rapid translocation and accumulation of the membrane phospholipid phosphatidylserine from the cell's cytoplasmic interface to the extracellular surface. This loss of membrane asymmetry can be detected using the binding properties of annexin V. To detect apoptosis, annexin V antibody conjugated with the fluorescent dye FITC was used. Briefly, 1×10^6 cells were pretreated with 10 μM guggulsterone for various time points and then subjected to annexin V staining. Cells were washed, stained with FITC-conjugated anti-annexin V antibody, and then analyzed with a flow cytometer (FACSCalibur; BD Biosciences). TUNEL Assay. Apoptosis was also assessed by the terminal deoxynucleotidyl transferase-mediated deoxyuridine triphosphate nick end-labeling (TUNEL) method, which examines DNA strand breaks that occur during apoptosis, using an in situ cell death detection reagent (Roche Molecular Biochemicals, Mannheim, Germany). Assays were performed using 5×10^5 cells that were incubated with 10 μM guggulsterone for 24 h and then fixed with 4% paraformaldehyde, and permeabilized with 0.1% Triton-X 100 in 0.1% sodium citrate. After being washed, the cells were incubated with reaction mixture for 60 min at 37° C. Stained cells were analyzed with a flow cytometer (FACSCalibur).

The target of experiment [1] is farnesoid X receptor (FXR) (Homo sapiens, UniProt Q96RI1). As to conditions: cited from earlier work.
A further experiment relates to IKK. Kind of experiment: Direct inhibition of immunoprecipitated IKK, kinase assay. As to conditions: 50 μM; immune complex treated 30 min at 30° C. Format: biochemical, human. How it is done:
IKK Assay: To determine the effect of guggulsterone on TNF-induced IKK activation, IKK was analyzed by a method essentially as described previously (Shishodia et al., 2003). Briefly, IKK complex was precipitated from whole-cell extracts with antibody to IKKα and IKKβ, assayed in kinase assay using GST-IκBα (1-54) as a substrate, and resolved on 10% polyacrylamide gel; the radioactive bands were visualized using a PHOSPHORIMAGER™. To determine the total amounts of IKKα and IKKβ in each sample, 30 μg of the whole-cell extract protein was resolved on a 7.5% polyacrylamide gel and analyzed by Western blot using antibody against IKKα and IKKβ.

A further experiment deals with RAW 264.7 cells. Description: Tumor cell (MDA-MB-468, U266) co-incubation-induced osteoclastogenesis. Format: cell-based, mouse. The note with it: RAW 264.7 co-incubation, GS 5 μM.
Another experiment concerns the target T1, NF-κB proteins (Homo sapiens, UniProt P19838+Q04206).
T1 construct: endogenous in cells; nuclear extract
Description: DNA binding of NF-κB in nuclear extracts incubated with guggulsterone (EMSA). The experiment is classed as biochemical. The note with it: nuclear extracts from TNF-activated H1299 cells treated with guggulsterone 4 hours at room temperature. How it is done: NF-κB Activation: To determine NF-κB activation, EMSA was carried out as previously described (Chaturvedi et al., 2000). Briefly, nuclear extracts prepared from cells (2×10^6/ml) treated with TNF were incubated with ^32P-end-labeled 45-mer double-stranded NF-κB oligonucleotide (8 μg of protein with […] of DNA) from the human immunodeficiency virus long terminal repeat, 5′-[…] GGCGTGG-3′ (SEQ ID NO:1) (boldface indicates NF-κB binding sites), for 15 min at 37° C. The DNA-protein complex formed was separated from free oligonucleotide on 6.6% native polyacrylamide gels. A double-stranded mutated oligonucleotide, 5′-[…]-3′ (SEQ ID NO:2), was used to examine the specificity of binding of NF-κB to the DNA. The specificity of binding was also examined by competition with the unlabeled oligonucleotide. For supershift assays, nuclear extracts prepared from TNF-treated cells were incubated with antibodies against either the p50 or the p65 subunit of NF-κB for 30 min at room temperature before the complex was analyzed by EMSA. The dried gels were visualized, and radioactive bands were quantitated using a PHOSPHORIMAGER™ (Molecular Dynamics, Sunnyvale, Calif.) using IMAGEQUANT™ software. […]
On the technique in general: In EMSA bound probe runs differently from free probe, usually more slowly.

A further experiment concerns NF-κB. Description: NF-κB activation by EMSA in H1299 cells. Format: cell-based, human. How it is done: NF-κB Activation: To determine NF-κB activation, EMSA was carried out as previously described (Chaturvedi et al., 2000). Briefly, nuclear extracts prepared from cells (2×10^6/ml) treated with TNF were incubated with ^32P-end-labeled 45-mer double-stranded NF-κB oligonucleotide (8 μg of protein with […] of DNA) from the human immunodeficiency virus long terminal repeat, 5′-[…] GGCGTGG-3′ (SEQ ID NO:1) (boldface indicates NF-κB binding sites), for 15 min at 37° C. The DNA-protein complex formed was separated from free oligonucleotide on 6.6% native polyacrylamide gels. A double-stranded mutated oligonucleotide, 5′-[…]-3′ (SEQ ID NO:2), was used to examine the specificity of binding of NF-κB to the DNA. The specificity of binding was also examined by competition with the unlabeled oligonucleotide. For supershift assays, nuclear extracts prepared from TNF-treated cells were incubated with antibodies against either the p50 or the p65 subunit of NF-κB for 30 min at room temperature before the complex was analyzed by EMSA. The dried gels were visualized, and radioactive bands were quantitated using a PHOSPHORIMAGER™ (Molecular Dynamics, Sunnyvale, Calif.) using IMAGEQUANT™ software.

Setting [2] is: H1299, 4 h pre-incubation, 0.1 nM TNF 30 min.

farnesoid X receptor (FXR), sequence (Q96RI1 whole entry, species assumed): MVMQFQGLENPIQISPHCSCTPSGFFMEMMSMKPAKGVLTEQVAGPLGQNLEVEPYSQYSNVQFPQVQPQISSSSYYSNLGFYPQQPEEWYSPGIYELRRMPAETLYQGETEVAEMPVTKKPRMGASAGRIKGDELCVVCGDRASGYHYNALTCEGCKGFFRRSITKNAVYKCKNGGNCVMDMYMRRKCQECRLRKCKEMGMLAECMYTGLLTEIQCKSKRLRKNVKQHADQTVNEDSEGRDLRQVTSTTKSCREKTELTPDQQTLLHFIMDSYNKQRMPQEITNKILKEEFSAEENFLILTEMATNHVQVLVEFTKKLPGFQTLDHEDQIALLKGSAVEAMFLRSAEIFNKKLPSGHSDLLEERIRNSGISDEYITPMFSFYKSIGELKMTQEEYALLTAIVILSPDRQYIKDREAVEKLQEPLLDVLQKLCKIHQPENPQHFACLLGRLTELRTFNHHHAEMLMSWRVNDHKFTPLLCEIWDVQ
T1 sequence (Q04206 whole entry): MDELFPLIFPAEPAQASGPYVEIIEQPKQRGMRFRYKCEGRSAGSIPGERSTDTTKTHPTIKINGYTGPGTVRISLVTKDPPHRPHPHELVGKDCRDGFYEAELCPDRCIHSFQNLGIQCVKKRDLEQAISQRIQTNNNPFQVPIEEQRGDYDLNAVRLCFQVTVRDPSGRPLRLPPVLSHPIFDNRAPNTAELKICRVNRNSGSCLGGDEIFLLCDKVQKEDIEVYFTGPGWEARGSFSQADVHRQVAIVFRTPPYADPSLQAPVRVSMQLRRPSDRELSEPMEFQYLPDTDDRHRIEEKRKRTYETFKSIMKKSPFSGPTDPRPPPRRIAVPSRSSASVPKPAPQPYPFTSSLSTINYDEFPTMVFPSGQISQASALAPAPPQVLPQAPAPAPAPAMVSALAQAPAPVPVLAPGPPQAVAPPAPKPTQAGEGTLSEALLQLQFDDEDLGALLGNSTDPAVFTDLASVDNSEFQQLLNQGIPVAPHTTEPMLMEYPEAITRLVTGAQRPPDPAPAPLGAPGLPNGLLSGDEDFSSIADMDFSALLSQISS
T1 sequence (P19838 1-433 limits assumed): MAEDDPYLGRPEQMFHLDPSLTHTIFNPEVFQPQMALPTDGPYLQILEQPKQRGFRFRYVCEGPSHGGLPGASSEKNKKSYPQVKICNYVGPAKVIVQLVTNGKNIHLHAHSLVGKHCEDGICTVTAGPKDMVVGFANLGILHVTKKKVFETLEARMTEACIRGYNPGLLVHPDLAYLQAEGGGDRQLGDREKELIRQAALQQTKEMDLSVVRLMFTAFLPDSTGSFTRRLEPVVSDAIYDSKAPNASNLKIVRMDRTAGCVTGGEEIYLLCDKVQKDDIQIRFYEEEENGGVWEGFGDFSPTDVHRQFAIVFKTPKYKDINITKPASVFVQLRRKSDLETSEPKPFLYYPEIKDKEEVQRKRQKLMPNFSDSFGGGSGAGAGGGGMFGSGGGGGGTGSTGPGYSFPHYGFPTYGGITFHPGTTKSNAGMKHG

For `CC=C1C(=O)C[C@H]2[C@@H]3CCC4=CC(=O)CC[C@]4(C)[C@H]3CC[C@]12C` [guggulsterone, 4,17(20)-pregnadiene-3,16-dione], the JNK activation result in the experiment with JNK was “activation of JNK”. Moreover, the “number of Annexin V and TUNEL positive cells” value in the experiment on U937 cells was “increased the number of Annexin V and TUNEL positive cells”. Moreover, in experiment [1] (Urizar et al., 2002, Wu et al.), the “action on bile acid receptor farnesoid X receptor (FXR)” value is recorded as “antagonist”. Besides, the “expression of bile acid-activated genes” value in experiment [1] (Urizar et al., 2002, Cui et al., 2003) was “decrease the expression of bile acid-activated genes”. Besides, the “phosphorylation of GST IκBα by immunoprecipitated IKK (direct inhibition)” value with IKK is reported as “inhibited the phosphorylation of GST IκBα”. The “osteoclast differentiation induced by co-incubation of U266 cells with macrophages” value with RAW 264.7 cells is listed as “induced osteoclast differentiation was suppressed”. For the same molecule, the “MDA-MB-468 cells-induced and U266 cells-induced osteoclast differentiation” value in the experiment on RAW 264.7 cells (5 days) is listed as “suppressed osteoclastogenesis”. Besides, the “DNA-binding ability of NF-κB proteins” value at NF-κB proteins is on record as “did not modify the DNA-binding ability of NF-κB proteins”. Also, the “minimum time required for complete inhibition of NF-κB activation” value with NF-κB (H1299, 50 μM guggulsterone, 0.1 nM TNF 30 min) is 4 h. Besides, in the experiment on NF-κB (setting [2]), the “TNF-mediated NF-κB activation, dose dependence” value is “inhibited TNF-mediated NF-κB activation in a dose-dependent manner” and the “concentration of maximum inhibition of TNF-mediated NF-κB activation” value was found to be 50 µM. Moreover, the “NF-κB activation induced by TNF, IL-1β, PMA, H2O2, cigarette smoke and okadaic acid (EMSA)” value with NF-κB (H1299 cells, 50 μM guggulsterone pre-incubated 4 h) is “suppressed the NF-κB activation induced by all these agents”. For the same molecule, in the experiment with NF-κB (H1299 nuclear extracts, up to 50 μM), the “NF-κB activation by guggulsterone by itself” value is listed as “by itself did not activate NF-κB”.

These data come from patent publication US20060019907A1, “Guggulsterone: an inhibitor of nuclear factor - kappaB and IkappaBalpha kinase activation and uses thereof” (Research Development Foundation, priority 2004, published 2006).
